The kinase profiling compilation of Christmann-Franck et al. (2016)
Values joined by “and” are separate entries in the source; they are usually repeats but may differ in a detail not shown here. Equal values may be shown once.

Columns and labels:
Test in all cases: radiometric filter-binding kinase assay, Kinase HotSpot
Settings in all cases: compound 0.5 µM; ATP 10 µM
[1] = target: ABL1 (human) (UniProt P00519)
[2] = target: ACVR1 (human) (UniProt Q04771)
[3] = target: ADRBK1 (human) (UniProt P25098)
[4] = target: ADRBK2 (human) (UniProt P35626)
[5] = target: BRAF (human) (UniProt P15056)
[6] = target: CAMK1G (human) (UniProt Q96NX5)
[7] = target: CDC42BPA (human) (UniProt Q5VT25)
[8] = target: CDC42BPB (human) (UniProt Q9Y5S2)
[9] = target: CHEK1 (human) (UniProt O14757)
[10] = target: DAPK2 (human) (UniProt Q9UIK4)
[11] = target: DSTYK (human) (UniProt Q6XUX3)
[12] = target: DYRK2 (human) (UniProt Q92630)
[13] = target: EPHB3 (human) (UniProt P54753)
[14] = target: EPHB4 (human) (UniProt P54760)
[15] = target: FGFR4 (human) (UniProt P22455)
[16] = target: IGF1R (human) (UniProt P08069)
[17] = target: IRAK4 (human) (UniProt Q9NWZ3)
[18] = target: LIMK1 (human) (UniProt P53667)
[19] = target: LYN (human) (UniProt P07948)
[20] = target: MAP3K9 (human) (UniProt P80192)
[21] = target: MET (human) (UniProt P08581)
[22] = target: NEK3 (human) (UniProt P51956)
[23] = target: NEK6 (human) (UniProt Q9HC98)
[24] = target: NEK9 (human) (UniProt Q8TD19)
[25] = target: NUAK2 (human) (UniProt Q9H093)
[26] = target: PDGFRA (human) (UniProt P16234)
[27] = target: PHKG1 (human) (UniProt Q16816)
[28] = target: PHKG2 (human) (UniProt P15735)
[29] = target: PRKCD (human) (UniProt Q05655)
[30] = target: PTK2 (human) (UniProt Q05397)
[31] = target: RAF1 (human) (UniProt P04049)
[32] = target: RPS6KA6 KD1 KD2 (human) (UniProt Q9UK32)
[33] = target: SRMS (human) (UniProt Q9H3Y6)
[34] = target: STK16 (human) (UniProt O75716)
[35] = target: STK25 (human) (UniProt O00506)
[36] = target: TEC (human) (UniProt P42680)
[37] = target: TGFBR1 (human) (UniProt P36897)
[38] = target: TSSK2 (human) (UniProt Q96PF2)

Sequence of LYN (human) (P07948 whole entry, looked up): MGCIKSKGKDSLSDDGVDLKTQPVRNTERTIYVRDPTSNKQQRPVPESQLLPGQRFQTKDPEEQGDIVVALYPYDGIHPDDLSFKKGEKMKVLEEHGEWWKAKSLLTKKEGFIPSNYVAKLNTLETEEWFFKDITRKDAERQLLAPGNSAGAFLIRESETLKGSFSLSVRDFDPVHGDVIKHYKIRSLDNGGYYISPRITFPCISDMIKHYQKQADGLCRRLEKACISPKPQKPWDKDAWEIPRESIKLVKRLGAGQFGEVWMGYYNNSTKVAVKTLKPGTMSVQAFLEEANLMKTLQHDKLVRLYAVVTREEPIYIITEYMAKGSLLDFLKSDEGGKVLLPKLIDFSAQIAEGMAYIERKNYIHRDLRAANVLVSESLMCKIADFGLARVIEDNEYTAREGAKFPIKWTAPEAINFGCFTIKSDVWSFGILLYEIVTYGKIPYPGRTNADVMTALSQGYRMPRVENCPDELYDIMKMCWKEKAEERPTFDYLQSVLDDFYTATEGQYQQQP
Sequence of TGFBR1 (human) (P36897 whole entry, looked up): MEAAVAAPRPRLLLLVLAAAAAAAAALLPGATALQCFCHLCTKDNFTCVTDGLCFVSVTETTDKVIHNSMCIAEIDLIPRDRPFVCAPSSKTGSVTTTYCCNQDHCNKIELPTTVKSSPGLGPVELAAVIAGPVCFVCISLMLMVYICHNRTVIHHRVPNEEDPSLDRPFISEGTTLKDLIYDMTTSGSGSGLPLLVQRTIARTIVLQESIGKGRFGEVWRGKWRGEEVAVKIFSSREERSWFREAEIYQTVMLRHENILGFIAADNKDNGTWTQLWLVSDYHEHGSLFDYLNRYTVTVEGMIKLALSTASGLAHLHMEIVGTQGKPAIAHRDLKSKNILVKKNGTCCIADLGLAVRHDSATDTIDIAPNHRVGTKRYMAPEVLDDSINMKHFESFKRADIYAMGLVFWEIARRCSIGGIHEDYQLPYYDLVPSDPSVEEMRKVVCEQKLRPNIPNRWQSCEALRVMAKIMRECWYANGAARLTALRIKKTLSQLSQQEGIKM
Sequence of PTK2 (human) (Q05397 whole entry, looked up): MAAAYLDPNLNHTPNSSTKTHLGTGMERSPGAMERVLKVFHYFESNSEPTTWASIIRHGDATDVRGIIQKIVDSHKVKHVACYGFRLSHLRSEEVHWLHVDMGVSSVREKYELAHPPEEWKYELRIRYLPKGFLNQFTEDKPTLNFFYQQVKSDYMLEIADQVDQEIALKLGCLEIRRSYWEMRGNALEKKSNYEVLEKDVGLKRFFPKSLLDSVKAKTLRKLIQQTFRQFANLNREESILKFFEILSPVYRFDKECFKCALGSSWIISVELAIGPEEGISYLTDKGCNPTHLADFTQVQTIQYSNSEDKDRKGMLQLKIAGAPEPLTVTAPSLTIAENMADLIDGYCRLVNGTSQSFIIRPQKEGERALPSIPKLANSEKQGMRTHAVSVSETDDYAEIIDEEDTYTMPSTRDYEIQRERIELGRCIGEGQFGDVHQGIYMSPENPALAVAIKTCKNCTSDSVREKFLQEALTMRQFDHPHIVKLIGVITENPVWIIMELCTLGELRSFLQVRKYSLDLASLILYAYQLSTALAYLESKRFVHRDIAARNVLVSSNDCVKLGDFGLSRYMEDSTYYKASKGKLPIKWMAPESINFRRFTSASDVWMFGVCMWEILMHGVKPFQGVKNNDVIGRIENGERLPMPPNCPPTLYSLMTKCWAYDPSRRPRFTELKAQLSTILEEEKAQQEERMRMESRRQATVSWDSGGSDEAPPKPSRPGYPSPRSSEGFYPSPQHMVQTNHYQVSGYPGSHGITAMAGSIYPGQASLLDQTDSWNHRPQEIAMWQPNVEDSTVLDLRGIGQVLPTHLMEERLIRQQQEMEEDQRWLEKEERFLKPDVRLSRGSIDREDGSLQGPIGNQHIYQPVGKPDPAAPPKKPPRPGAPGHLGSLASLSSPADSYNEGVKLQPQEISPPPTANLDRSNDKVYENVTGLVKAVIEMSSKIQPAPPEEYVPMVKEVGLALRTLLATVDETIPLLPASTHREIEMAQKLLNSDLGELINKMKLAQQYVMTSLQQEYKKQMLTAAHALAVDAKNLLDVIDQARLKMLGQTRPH
Sequence of ABL1 (human) (P00519 whole entry, looked up): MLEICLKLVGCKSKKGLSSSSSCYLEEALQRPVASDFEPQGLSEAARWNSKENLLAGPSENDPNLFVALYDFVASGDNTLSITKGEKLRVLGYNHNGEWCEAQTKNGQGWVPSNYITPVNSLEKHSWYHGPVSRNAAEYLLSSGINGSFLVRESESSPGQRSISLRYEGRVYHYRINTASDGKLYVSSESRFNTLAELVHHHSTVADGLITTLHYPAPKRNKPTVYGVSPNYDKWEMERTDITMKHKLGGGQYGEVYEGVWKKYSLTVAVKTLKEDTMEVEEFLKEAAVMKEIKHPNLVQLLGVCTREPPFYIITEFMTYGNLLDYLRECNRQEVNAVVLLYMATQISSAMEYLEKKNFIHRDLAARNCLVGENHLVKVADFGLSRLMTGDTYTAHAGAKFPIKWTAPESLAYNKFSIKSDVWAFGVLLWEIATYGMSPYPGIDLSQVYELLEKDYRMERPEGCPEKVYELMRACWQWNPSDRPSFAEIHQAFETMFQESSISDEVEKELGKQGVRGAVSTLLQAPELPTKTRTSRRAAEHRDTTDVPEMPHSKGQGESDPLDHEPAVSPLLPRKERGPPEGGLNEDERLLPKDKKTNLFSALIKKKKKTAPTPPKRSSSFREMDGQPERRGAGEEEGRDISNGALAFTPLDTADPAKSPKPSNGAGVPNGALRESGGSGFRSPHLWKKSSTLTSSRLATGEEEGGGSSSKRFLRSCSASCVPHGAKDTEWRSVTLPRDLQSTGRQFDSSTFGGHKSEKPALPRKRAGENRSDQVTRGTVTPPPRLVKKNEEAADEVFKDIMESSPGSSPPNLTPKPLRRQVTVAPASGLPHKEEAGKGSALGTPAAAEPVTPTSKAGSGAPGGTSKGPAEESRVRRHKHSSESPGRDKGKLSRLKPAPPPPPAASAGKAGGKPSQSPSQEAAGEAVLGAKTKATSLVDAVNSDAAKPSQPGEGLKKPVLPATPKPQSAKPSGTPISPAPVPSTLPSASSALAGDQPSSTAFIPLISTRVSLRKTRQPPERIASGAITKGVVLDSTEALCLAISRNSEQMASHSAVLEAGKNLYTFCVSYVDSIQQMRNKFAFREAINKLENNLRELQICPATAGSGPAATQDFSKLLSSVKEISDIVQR
Sequence of PHKG2 (human) (P15735 whole entry, looked up): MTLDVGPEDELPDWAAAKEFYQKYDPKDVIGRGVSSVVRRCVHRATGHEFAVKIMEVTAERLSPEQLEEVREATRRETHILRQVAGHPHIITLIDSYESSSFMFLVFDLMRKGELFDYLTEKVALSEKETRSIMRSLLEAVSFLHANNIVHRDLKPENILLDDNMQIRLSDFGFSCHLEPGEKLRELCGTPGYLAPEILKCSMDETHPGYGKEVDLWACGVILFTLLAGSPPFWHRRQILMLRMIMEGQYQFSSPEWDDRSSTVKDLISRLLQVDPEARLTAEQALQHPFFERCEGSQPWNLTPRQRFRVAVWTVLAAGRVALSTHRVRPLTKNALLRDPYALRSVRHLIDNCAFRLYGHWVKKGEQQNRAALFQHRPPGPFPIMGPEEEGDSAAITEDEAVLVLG
Sequence of FGFR4 (human) (P22455 whole entry, looked up): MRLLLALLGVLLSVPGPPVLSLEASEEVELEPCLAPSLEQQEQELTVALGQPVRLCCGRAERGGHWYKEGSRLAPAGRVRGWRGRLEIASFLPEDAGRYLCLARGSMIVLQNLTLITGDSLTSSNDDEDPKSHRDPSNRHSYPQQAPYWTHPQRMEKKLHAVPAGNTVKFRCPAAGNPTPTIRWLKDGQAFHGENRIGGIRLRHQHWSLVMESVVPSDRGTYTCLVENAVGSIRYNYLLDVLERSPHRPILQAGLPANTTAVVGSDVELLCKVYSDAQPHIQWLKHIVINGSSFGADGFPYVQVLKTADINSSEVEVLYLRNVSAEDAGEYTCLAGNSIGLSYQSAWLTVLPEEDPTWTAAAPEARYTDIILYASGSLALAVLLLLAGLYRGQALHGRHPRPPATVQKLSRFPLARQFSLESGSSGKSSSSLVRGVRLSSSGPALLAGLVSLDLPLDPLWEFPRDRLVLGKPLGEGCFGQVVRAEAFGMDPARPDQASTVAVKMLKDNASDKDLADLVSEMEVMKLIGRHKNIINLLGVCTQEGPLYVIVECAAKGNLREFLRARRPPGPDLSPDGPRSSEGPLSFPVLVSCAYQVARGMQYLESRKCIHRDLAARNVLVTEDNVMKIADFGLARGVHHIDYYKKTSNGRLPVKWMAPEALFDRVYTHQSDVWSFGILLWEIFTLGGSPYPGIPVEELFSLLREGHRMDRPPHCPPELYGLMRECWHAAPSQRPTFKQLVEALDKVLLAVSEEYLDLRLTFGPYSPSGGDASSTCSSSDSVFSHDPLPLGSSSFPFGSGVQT
Sequence of STK16 (human) (O75716 whole entry, looked up): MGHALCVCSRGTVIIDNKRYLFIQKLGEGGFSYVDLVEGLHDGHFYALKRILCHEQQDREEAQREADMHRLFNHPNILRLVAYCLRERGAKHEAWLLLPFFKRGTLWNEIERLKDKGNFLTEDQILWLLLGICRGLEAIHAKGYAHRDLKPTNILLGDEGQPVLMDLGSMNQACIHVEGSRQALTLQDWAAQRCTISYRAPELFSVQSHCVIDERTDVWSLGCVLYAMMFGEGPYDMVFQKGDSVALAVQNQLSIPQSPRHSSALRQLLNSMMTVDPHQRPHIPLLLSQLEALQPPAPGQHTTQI
Sequence of NEK6 (human) (Q9HC98 whole entry, looked up): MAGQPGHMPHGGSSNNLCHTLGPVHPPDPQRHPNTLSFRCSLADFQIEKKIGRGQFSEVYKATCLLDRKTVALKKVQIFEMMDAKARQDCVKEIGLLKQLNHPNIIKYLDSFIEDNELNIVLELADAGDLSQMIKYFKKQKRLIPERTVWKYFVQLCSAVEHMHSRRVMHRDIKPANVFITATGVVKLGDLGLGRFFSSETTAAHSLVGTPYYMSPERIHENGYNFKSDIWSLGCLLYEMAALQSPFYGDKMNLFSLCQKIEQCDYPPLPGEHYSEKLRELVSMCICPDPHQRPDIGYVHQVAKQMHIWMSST

| Compound | residual activity [1] | residual activity [2] | residual activity [3] | residual activity [4] | residual activity [5] | residual activity [6] | residual activity [7] | residual activity [10] | residual activity [11] | residual activity [12] | residual activity [13] | residual activity [14] | residual activity [15] | residual activity [16] | residual activity [17] | residual activity [18] | residual activity [19] | residual activity [20] | residual activity [23] | residual activity [24] | also measured |
| --- | --- | --- | --- | --- | --- | --- | --- | --- | --- | --- | --- | --- | --- | --- | --- | --- | --- | --- | --- | --- | --- |
| O=C(Nc1cccc(Nc2nccc(Nc3cccc(C(F)(F)F)c3)n2)c1)C1CC1 | 94.9% | 111% | 84.7% | 93.1% | 104% | 98.8% | 100% | 120% | 93.8% | 106% | 100% | 91.3% | 101% | 95.7% | 146% | 45.1% | 91.9% and 99.9% | 95.2% | 103% | 102% | residual activity [8]: 96.6%; residual activity [9]: 96.6%; residual activity [21]: 87.7%; residual activity [22]: 95.8%; residual activity [25]: 94.3%; residual activity [26]: 89.3%; residual activity [27]: 98.3%; residual activity [28]: 107%; residual activity [29]: 87.9%; residual activity [30]: 89.1%; residual activity [31]: 98.7%; residual activity [32]: 89.5%; residual activity [33]: 95.5%; residual activity [34]: 87%; residual activity [35]: 98.1%; residual activity [36]: 158%; residual activity [37]: 102%; residual activity [38]: 97.1% |
| c1ccc(-c2n[nH]c3c2oc2ccccc23)cc1 | 99.6% | 99.4% | 104% | 119% | 96.9% | 100% | 87.4% | 71.2% | 82.9% | 95.4% | 84.7% | 112% | 85.5% | 98.1% | 92.7% | 71.2% | 102% and 108% | 97.5% | 99% | 99% | residual activity [8]: 99%; residual activity [9]: 117%; residual activity [21]: 98.4%; residual activity [22]: 98.9%; residual activity [25]: 95.2%; residual activity [26]: 73.7%; residual activity [27]: 91.5%; residual activity [28]: 112%; residual activity [29]: 96.7%; residual activity [30]: 94.7%; residual activity [31]: 94.9%; residual activity [32]: 107%; residual activity [33]: 99.5%; residual activity [34]: 89.1%; residual activity [35]: 89.6%; residual activity [36]: 95.6%; residual activity [37]: 94.9%; residual activity [38]: 97.6% |
| O=S(=O)(c1cccc2cnccc12)N1CCCNCC1 | 96.8% | 96.5% | 105% | 100% | 97.7% | 101% | 104% | 83.6% | 90.4% | 97.9% | 95.4% | 107% | 82.8% | 112% | 108% | 100% | 102% and 106% | 94.4% | 97.6% | 95.9% | residual activity [25]: 83.5%; residual activity [27]: 90.8%; residual activity [28]: 95.4%; residual activity [29]: 84.7%; residual activity [30]: 93.9%; residual activity [31]: 98.3%; residual activity [32]: 94%; residual activity [33]: 97.5%; residual activity [34]: 91.7%; residual activity [35]: 84.8%; residual activity [36]: 109%; residual activity [37]: 98.4%; residual activity [38]: 80.2% |
| COc1ccc(COc2ccc(Cc3cnc(N)nc3N)cc2OC)cc1 | 102% | 100% | 96.1% | 103% | 99% | 98.3% | 94.4% | 95.3% | 95% | 105% | 91.8% | 90.5% | 99.7% | 123% | 110% | 94.5% | 98.1% and 99.9% | 105% | 99.4% | 93.3% | residual activity [8]: 96.9%; residual activity [9]: 107%; residual activity [21]: 76.1%; residual activity [22]: 98.1%; residual activity [25]: 98.1%; residual activity [26]: 99.4%; residual activity [27]: 95.3%; residual activity [28]: 106%; residual activity [29]: 87.8%; residual activity [30]: 95.5%; residual activity [32]: 101%; residual activity [33]: 95.9%; residual activity [34]: 106%; residual activity [35]: 97%; residual activity [36]: 114%; residual activity [37]: 97%; residual activity [38]: 109% |
